Measurements as given in BindingDB's records for doi:10.1021/jm00105a058 (J. Uriach & Cía., 1991).

Assay: Inhibitory activity expressed as the concentration required to inhibit platelet-activating factor (PAF) induced maximum aggregation by 50%

| IC50 [nM] | Structure (SMILES) |
| --- | --- |
| 1700 | CCCCCCCCCCCCCCCCC1COC(COCCCCCCC[n+]2ccsc2)C1 (stereo not given) |
| > 200000 | CCCCCCCCCCCCCCC1COC(COP(=O)([O-])OCC[N+](C)(C)C)C1 (stereo not given) |
| 1200 | CCCCCCCCCCCCCCCCOCC1OCC(COCCCC[n+]2ccsc2)O1 (stereo not given) |
| > 100000 | CCCCCCCCCCCCCCCCCC1OCC(COP(=O)([O-])OCC[n+]2ccccc2)O1 (stereo not given) |
| 2100 | CCCCCCCCCCCCCCC1COC(COCCCCCC[n+]2ccsc2)C1 (stereo not given) |
| 3000 | CCCCCCCCCCCCCCCCCC1OCC(COCCCCCC[n+]2ccccc2)O1 (stereo not given) |
| 3100 | CCCCCCCCCCCCCCCCCC1OCC(COCCCCCC[n+]2cscc2C)O1 (stereo not given) |
| > 100000 | CCCCCCCCCCCCCCC1COC(COP(=O)([O-])OCC[n+]2ccsc2)C1 (stereo not given) |
| 150000 | CC1OCC(COC(=O)CCCCC[n+]2ccsc2)O1 (stereo not given) |
| 140 | CCCCCCCCCCCCCCCCCCOCC1OCC(COC(=O)N(Cc2cccc[n+]2CC)C(C)=O)O1 (stereo not given) |
| 3900 | CCCCCCCCCCCCCCCCCCOCC1CC(COCCCCCCC[n+]2ccsc2)CO1 (stereo not given) |
| 83 | CCCCCCCCCCCCCCCCOCC1OCC(COC(=O)N(Cc2cccc[n+]2CC)C(C)=O)O1 (stereo not given) |
| 2400 | CCCCCCCCCCCCCCCCCC1OCC(COCCCCCC[N+](C)(C)C)O1 (stereo not given) |
| 11000 | CCCCCCCCCCCCCCCCOCC1COC(COC(=O)N(Cc2ccccn2)C(C)=O)C1 (stereo not given) |
| 1400 | CCCCCCCCCCCCCCCCCC1OCC(COCCCCCC[n+]2ccsc2)O1 (stereo not given) |
| 3100 | CCCCCCCCCCCCCCCC1CCC(COC(=O)CCCCC[n+]2ccsc2)O1 (stereo not given) |
| 860 | CCCCCCCCCCCCCCCCOCC1COC(COC(=O)N(C(C)=O)c2cc[n+](CC)cc2)C1 (stereo not given) |
| 1100 | CCCCCCCCCCCCCCC1COC(COCCCCCCCC[n+]2ccsc2)C1 (stereo not given) |
| 73 | CCCCCCCCCCCCCCCCOCC1COC(COC(=O)N(Cc2cccc[n+]2CC)C(=O)OCC)C1 (stereo not given) |
| 39000 | CCCCCCCCCCCCCCC1COC(COCCCC[n+]2ccsc2)C1 (stereo not given) |
| 5300 | CCCCCCCCCCCCCCCCOCC1COC(COC(=O)NCc2cccc[n+]2CC)C1 (stereo not given) |
| 20000 | CCCCCCCCCCCCCC1OCC(COC(=O)CCCCC[n+]2ccsc2)O1 (stereo not given) |
| 2700 | CCCCCCCCCCCCCCCCCC1OCC(COCCCCCC[n+]2cccc3ccccc32)O1 (stereo not given) |

| IC50 [nM] | Structure (SMILES) |
| --- | --- |
| 1300 | CCCCCCCCCCCCCCCC1CCC(COCCCCCC[n+]2ccsc2)O1 (stereo not given) |
| 110 | CCCCCCCCCCCCCCOCC1COC(COC(=O)N(Cc2cccc[n+]2CC)C(C)=O)O1 (stereo not given) |
| 24 | CCCCCCCCCCCCCCCCCC1COC(COC(=O)N(Cc2cccc[n+]2CC)C(C)=O)O1 (stereo not given) |
| 1400 | CCCCCCCCCCCCCCOCC1COC(COCCCCCC[n+]2ccsc2)C1 (stereo not given) |
| 140 | CCCCCCCCCCCCCCC1COC(COC(=O)N(Cc2cccc[n+]2CC)C(C)=O)C1 (stereo not given) |
| 80 | CCCCCCCCCCCCCCCC1CCC(COC(=O)N(Cc2cccc[n+]2CC)C(C)=O)O1 (stereo not given) |
| 3600 | CCCCCCCCCCCCCCCCOCC1COC(COC(=O)CCCCC[n+]2ccsc2)C1 (stereo not given) |
| > 100000 | CCCCCCCCCCCCCCCCCC1OCC(COP(=O)([O-])OCC[N+](C)(C)C)O1 (stereo not given) |
| 2500 | CCCCCCCCCCCCCCCCCCOCC1COC(COC(=O)N(Cc2ccc[n+](CC)c2)C(C)=O)C1 (stereo not given) |
| 10000 | CCCCCCCCCCCCCCCCCC1OCC(COCCCCCC[N+]2(C)CCOCC2)O1 (stereo not given) |
| 830 | CCCCCCCCCCCCCCC1COC(COCCCCCCC[n+]2ccsc2)C1 (stereo not given) |
| > 50000 | CCCCCCCCCCCCCCC1COC(COC(=O)CCCCC[n+]2ccsc2)C1 (stereo not given) |
| 4900 | CCCCCCCCCCCCCCCCOCC1OCC(COC(=O)CCCCC[n+]2ccsc2)O1 (stereo not given) |
| 1700 | CCCCCCCCCCCCCCOCC1COC(COCCCCCCC[n+]2ccsc2)C1 (stereo not given) |
| 2100 | CCCCCCCCCCCCCCCCCCOCC1CC(COCCCCC[n+]2ccsc2)CO1 (stereo not given) |
| 1500 | CCCCCCCCCCCCCCCCCCOCC1CC(COC(=O)CCCCC[n+]2ccsc2)CO1 (stereo not given) |
| 2600 | CCCCCCCCCCCCCCCCOCC1COC(COC(=O)N(CCc2cccc[n+]2CC)C(C)=O)C1 (stereo not given) |
| 2800 | CCCCCCCCCCCCCCCCOCC1COC(COC(=O)NCCc2cccc[n+]2CC)C1 (stereo not given) |
| 1900 | CCCCCCCCCCCCCCC1COC(COCCCCCC[n+]2cccc3ccccc32)C1 (stereo not given) |
| 1300 | CCCCCCCCCCCCCCCCOCC1OCC(COCCCCCC[n+]2ccsc2)O1 (stereo not given) |
| 470 | CCCCCCCCCCCCCCCCCCC1COC(COC(=O)N(Cc2cccc[n+]2CC)C(C)=O)C1 (stereo not given) |
| 8200 | CCCCCCCCCCCCCCC1COC(COCCCCCC[N+](C)(C)C)C1 (stereo not given) |
| 85 | CCCCCCCCCCCCCCOCC1COC(COC(=O)N(Cc2cccc[n+]2CC)C(C)=O)C1 (stereo not given) |

| IC50 [nM] | Structure (SMILES) |
| --- | --- |
| 1400 | CCCCCCCCCCCCCCCCOCC1CC(COCCCCCC[n+]2ccsc2)CO1 (stereo not given) |
| 540 | CCCCCCCCCCCCCCCCOCC1COC(COCCCCCC[n+]2ccsc2)C1 (stereo not given) |
| 6000 | CCCCCCCCCCCCCCCCCC1OCC(COCCCC[n+]2ccsc2)O1 (stereo not given) |
| 71 | CCCCCCCCCCCCCCCCCC1CCC(COC(=O)N(Cc2cccc[n+]2CC)C(C)=O)O1 (stereo not given) |
| 1100 | CCCCCCCCCCCCCCCCCC1OCC(COC(=O)CCCCC[n+]2ccsc2)O1 (stereo not given) |
| 94 | CCCCCCCCCCCCCCCCCCOCC1COC(COC(=O)N(Cc2cccc[n+]2CC)C(C)=O)O1 (stereo not given) |
| 200 | CCCCCCCCCCCCCCCCOCC1COC(COC(=O)N(Cc2cccc[n+]2C)C(C)=O)C1 (stereo not given) |
| 2300 | CCCCCCCCCCCCCCCCOCC1COC(COC(=O)N(C(C)=O)c2ccc[n+](CC)c2)C1 (stereo not given) |
| 9200 | CCCCCCCCCCCCCCCCCCOCC1COC(COC(=O)CCCCC[n+]2ccsc2)C1 (stereo not given) |
| 1900 | CCCCCCCCCCCCCCCCCCOCC1COC(COC(=O)N=c2ccn(CC)cc2)C1 (stereo not given) |
| 1100 | CCCCCCCCCCCCOCC1COC(COCCCCCCC[n+]2ccsc2)C1 (stereo not given) |
| 3000 | CCCCCCCCCCCCCCCC1OCC(COC(=O)CCCCC[n+]2ccsc2)O1 (stereo not given) |
| 5500 | CCCCCCCCCCCCCCCCCCCC1OCC(COC(=O)CCCCC[n+]2ccsc2)O1 (stereo not given) |
| 18 | CCCCCCCCCCCCCCCCOCC1COC(COC(=O)N(Cc2cccc[n+]2CC)C(C)=O)C1 (stereo not given) |
| 99 | CCCCCCCCCCCCCCCCOCC1CCC(COC(=O)N(Cc2cccc[n+]2CC)C(C)=O)O1 (stereo not given) |
| 1600 | CCCCCCCCCCCCCCCCCCOCC1COC(COC(=O)N(Cc2cc[n+](CC)cc2)C(C)=O)C1 (stereo not given) |
| 52 | CCCCCCCCCCCCCCCCCCOCC1COC(COC(=O)N(Cc2cccc[n+]2CC)C(C)=O)C1 (stereo not given) |
| 3700 | CCCCCCCCCCCCCCCCCC1OCC(COCCCCCCCC[n+]2ccsc2)O1 (stereo not given) |
| > 100000 | CCCCCCCCCCCCCCC1COC(COP(=O)([O-])OCC[n+]2ccccc2)C1 (stereo not given) |
| 210 | CCCCCCCCCCCCCCCCCC1OCC(COC(=O)N(Cc2cccc[n+]2CC)C(C)=O)O1 (stereo not given) |
| 19 | CCCCCCCCCCCCCCCCOCC1COC(COC(=O)N(Cc2cccc[n+]2CC)C(C)=O)O1 (stereo not given) [2-{[Acetyl-(4-hexadecyloxymethyl-[1,3]dioxolan-2-ylmethoxycarbonyl)-amino]-methyl}-1-ethyl-pyridinium; chloride] |
| 8000 | CCCCCCCCCCCCCCCCCCOCC1COC(COC(=O)NCc2cc[n+](CC)cc2)C1 (stereo not given) |

Assay: as above
Remark: another data set of the same source

| IC50 [nM] | Structure (SMILES) |
| --- | --- |
| 8.2 | CCCCCCCCCCCCCCCCOCC1COC(COC(=O)N(Cc2cccc[n+]2CC)C(C)=O)C1 (stereo not given) |
| 15 | CCCCCCCCCCCCCCCCOCC1COC(COC(=O)N(Cc2cccc[n+]2CC)C(C)=O)O1 (stereo not given) [2-{[Acetyl-(4-hexadecyloxymethyl-[1,3]dioxolan-2-ylmethoxycarbonyl)-amino]-methyl}-1-ethyl-pyridinium; chloride] |
